Test results taken from ChEMBL document CHEMBL5523766 (J Med Chem, 2024).

Molecular target: ATR/ATRIP (Homo sapiens, UniProt Q13535)
Assay: Inhibition of ATR/ATRIP (unknown origin) using 5-FAM-AK-17 as substrate preincubated with compound for 10 mins followed by ATP addition and measured after 240 mins by mobility shift assay
Format: protein-complex assay

Sequence of ATR/ATRIP (Q13535 whole entry): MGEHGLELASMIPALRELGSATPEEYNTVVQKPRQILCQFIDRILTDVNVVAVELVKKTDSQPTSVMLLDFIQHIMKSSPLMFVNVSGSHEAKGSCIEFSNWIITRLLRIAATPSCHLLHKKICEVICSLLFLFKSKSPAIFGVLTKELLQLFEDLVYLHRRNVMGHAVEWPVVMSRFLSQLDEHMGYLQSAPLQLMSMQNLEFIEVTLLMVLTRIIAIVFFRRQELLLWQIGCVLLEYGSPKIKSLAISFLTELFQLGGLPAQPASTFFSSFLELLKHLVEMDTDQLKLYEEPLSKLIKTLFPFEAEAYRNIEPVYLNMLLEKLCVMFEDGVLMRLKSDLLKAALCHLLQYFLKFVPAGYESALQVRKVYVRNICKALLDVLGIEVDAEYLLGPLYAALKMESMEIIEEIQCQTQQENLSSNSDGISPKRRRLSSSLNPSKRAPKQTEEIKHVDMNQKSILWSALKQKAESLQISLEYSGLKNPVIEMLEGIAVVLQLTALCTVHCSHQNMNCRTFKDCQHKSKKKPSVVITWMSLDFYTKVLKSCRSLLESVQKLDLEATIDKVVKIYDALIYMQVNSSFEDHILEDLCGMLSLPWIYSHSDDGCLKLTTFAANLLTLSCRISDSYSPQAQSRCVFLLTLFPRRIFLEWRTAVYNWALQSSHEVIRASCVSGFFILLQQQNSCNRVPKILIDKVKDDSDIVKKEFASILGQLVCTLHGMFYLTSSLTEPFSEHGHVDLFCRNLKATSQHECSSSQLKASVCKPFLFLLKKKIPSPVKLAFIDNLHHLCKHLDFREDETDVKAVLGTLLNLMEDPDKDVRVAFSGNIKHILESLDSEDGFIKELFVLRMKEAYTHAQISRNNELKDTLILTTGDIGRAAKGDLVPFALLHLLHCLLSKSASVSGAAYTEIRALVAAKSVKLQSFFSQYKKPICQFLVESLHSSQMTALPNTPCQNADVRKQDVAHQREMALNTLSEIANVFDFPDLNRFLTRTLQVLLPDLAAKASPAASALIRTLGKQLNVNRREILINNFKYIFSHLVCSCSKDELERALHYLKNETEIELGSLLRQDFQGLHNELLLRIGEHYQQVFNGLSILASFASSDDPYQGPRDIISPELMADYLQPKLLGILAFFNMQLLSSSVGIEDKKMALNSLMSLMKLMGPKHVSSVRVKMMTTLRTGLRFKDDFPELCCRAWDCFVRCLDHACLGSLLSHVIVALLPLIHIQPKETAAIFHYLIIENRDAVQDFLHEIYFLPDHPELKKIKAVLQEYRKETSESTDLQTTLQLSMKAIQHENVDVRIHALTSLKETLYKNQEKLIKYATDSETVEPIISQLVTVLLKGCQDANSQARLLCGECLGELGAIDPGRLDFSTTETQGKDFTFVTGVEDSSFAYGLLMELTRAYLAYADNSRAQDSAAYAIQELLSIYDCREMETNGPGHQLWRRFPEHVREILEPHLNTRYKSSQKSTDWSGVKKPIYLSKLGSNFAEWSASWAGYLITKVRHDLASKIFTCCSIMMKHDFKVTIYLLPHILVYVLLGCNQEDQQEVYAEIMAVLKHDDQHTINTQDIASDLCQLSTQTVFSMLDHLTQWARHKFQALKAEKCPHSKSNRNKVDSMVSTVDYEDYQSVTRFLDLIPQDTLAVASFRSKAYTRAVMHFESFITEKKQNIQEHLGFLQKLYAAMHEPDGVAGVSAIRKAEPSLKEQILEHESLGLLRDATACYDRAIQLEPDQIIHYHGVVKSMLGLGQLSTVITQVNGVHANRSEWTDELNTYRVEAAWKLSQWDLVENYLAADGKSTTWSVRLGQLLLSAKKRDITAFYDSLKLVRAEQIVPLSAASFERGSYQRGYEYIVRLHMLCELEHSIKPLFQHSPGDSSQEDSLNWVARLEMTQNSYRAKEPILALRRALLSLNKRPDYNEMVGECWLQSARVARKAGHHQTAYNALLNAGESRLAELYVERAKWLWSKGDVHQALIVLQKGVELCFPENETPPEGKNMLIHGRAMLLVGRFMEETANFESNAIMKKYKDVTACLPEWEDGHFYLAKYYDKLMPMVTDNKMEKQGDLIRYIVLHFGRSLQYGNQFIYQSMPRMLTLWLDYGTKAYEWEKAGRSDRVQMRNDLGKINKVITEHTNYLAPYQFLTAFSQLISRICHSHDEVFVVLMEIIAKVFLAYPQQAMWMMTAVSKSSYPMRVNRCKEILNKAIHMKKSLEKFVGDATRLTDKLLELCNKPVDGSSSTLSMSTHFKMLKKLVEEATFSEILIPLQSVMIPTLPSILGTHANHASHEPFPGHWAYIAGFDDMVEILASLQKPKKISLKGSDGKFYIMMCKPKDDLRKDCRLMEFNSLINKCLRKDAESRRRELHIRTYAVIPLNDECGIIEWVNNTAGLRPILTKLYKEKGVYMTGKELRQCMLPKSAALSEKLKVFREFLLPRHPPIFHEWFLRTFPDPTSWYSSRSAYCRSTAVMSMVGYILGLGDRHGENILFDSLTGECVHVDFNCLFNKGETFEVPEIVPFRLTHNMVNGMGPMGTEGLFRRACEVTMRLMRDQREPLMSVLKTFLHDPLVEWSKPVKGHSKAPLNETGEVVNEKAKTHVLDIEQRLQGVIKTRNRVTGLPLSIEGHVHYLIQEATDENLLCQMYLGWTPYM
Sequence of ATR/ATRIP (Q8WXE1 whole entry, further chain): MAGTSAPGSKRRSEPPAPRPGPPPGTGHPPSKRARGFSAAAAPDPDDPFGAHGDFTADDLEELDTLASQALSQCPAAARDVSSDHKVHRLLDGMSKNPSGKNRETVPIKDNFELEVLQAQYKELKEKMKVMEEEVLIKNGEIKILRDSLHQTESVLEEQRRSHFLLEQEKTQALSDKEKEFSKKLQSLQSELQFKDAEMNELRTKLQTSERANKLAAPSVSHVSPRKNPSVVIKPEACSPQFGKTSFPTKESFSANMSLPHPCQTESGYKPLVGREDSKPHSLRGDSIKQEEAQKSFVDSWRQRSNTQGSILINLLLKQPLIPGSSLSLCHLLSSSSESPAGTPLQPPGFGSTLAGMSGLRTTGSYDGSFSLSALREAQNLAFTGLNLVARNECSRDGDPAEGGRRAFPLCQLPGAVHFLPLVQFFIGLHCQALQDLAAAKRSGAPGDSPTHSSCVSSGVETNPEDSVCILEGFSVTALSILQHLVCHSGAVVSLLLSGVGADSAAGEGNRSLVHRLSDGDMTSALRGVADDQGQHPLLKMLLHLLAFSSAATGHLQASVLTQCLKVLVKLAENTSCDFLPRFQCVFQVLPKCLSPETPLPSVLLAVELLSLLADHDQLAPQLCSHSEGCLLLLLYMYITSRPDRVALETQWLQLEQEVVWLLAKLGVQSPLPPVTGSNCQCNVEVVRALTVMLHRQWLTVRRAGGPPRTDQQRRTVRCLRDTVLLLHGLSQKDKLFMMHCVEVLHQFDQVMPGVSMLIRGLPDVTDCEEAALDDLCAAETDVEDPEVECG

| SMILES | IC50 |
| --- | --- |
| C[C@@H]1COCCN1c1nc(-c2cccc3occc23)nc2c1ccn2S(C)(=O)=O | 684 nM |
| C[C@@H]1COCCN1c1nc(-c2cc(C#N)cc3[nH]ccc23)nc2c1ccn2S(C)(=O)=O | 9.4 nM |
| C[C@@H]1COCCN1c1nc(-c2cccc3[nH]ccc23)nc2c1ccn2S(=O)(=O)c1ccccc1 | 270 nM |
| C[C@@H]1COCCN1c1cc(C2CCCS2(=O)=O)nc(-c2cccc3[nH]ccc23)n1 (stereo partly specified) | 9.4 nM |
| C[C@@H]1COCCN1c1nc(-c2ccc3[nH]cnc3c2)nc2c1ccn2S(C)(=O)=O | 245 nM |
| C[C@@H]1COCCN1c1nc(-c2cccc3[nH]ccc23)nc2c1cnn2S(C)(=O)=O | 5.8 nM |
| C[C@@H]1COCCN1c1nc(-c2cccc3[nH]ccc23)nc2c1ccn2S(=O)(=O)c1ccc(-c2ccccc2)cc1 | 10200 nM |
| C[C@@H]1COCCN1c1nc(-c2ccc3nccn3c2)nc2c1ccn2S(C)(=O)=O | 625 nM |
| COc1cc(-c2nc(N3CCOC[C@H]3C)c3ccn(S(C)(=O)=O)c3n2)c2cc[nH]c2c1 | 5.3 nM |
| C[C@@H]1COCCN1c1nc(-c2ccc3[nH]ccc3c2)nc2c1ccn2S(C)(=O)=O | 53.1 nM |
| C[C@@H]1COCCN1c1nc(-c2ccnc3cccnc23)nc2c1ccn2S(C)(=O)=O | 3690 nM |
| C[C@@H]1COCCN1c1nc(-c2cncc3ccccc23)nc2c1ccn2S(C)(=O)=O | 46.9 nM |
| C[C@@H]1COCCN1c1nc(-c2cccc3[nH]ccc23)nc2c1CS(=O)(=O)C2 | 32.1 nM |
| C[C@@H]1COCCN1c1cc(C2CCCCS2(=O)=O)nc(-c2cccc3[nH]ccc23)n1 (stereo partly specified) | 7.8 nM |
| C[C@@H]1COCCN1c1nc(-c2cccc3ccccc23)nc2c1ccn2S(C)(=O)=O | 39.5 nM |
| C[C@@H]1COCCN1c1nc(-c2cccc3[nH]ccc23)nc2c1ccn2S(=O)(=O)C1CC1 | 3.8 nM |

| SMILES | IC50 |
| --- | --- |
| CC(C)N(c1cc(N2CCOC[C@H]2C)nc(-c2cccc3[nH]ccc23)n1)S(C)(=O)=O | 7.8 nM |
| C[C@@H]1COCCN1c1cc(C2(S(=O)(=O)N(C)C)CC2)nc(-c2cccc3[nH]ccc23)n1 | 746 nM |
| C[C@@H]1COCCN1c1cc(N2CCCS2(=O)=O)nc(-c2cccc3[nH]ccc23)n1 | 43.5 nM |
| C[C@@H]1COCCN1c1nc(-c2cccc3[nH]ccc23)nc2c1ccn2S(=O)(=O)c1cccs1 | 84.9 nM |
| Cc1ccc(S(=O)(=O)n2ccc3c(N4CCOC[C@H]4C)nc(-c4cccc5[nH]ccc45)nc32)cc1 | 3670 nM |
| C[C@@H]1COCCN1c1nc(-c2cccc3[nH]ccc23)nc2c1ccn2S(C)(=O)=O | 2.3 nM |
| C[C@@H]1COCCN1c1nc(-c2cc(C(F)(F)F)cc3[nH]ccc23)nc2c1ccn2S(C)(=O)=O | 9.2 nM |
| CCS(=O)(=O)n1ccc2c(N3CCOC[C@H]3C)nc(-c3cccc4[nH]ccc34)nc21 | 4.3 nM |
| C[C@@H]1COCCN1c1nc(-c2cc(Cl)cc3[nH]ccc23)nc2c1ccn2S(C)(=O)=O | 4.4 nM |
| C[C@@H]1COCCN1c1nc(-c2cnc3ccccc3c2)nc2c1ccn2S(C)(=O)=O | 630 nM |
| CC(C)S(=O)(=O)n1ccc2c(N3CCOC[C@H]3C)nc(-c3cccc4[nH]ccc34)nc21 | 8 nM |
| C[C@@H]1COCCN1c1nc(-c2cccc3[nH]ccc23)nc2c1ccn2S(=O)(=O)N(C)C | 5.3 nM |
| C[C@@H]1COCCN1c1nc(-c2cccc3[nH]ccc23)nc2c1ccn2S(=O)(=O)C1CCCCC1 | 205 nM |
| C[C@@H]1COCCN1c1cc(N(C2CC2)S(C)(=O)=O)nc(-c2cccc3[nH]ccc23)n1 | 3.3 nM |
| C[C@@H]1COCCN1c1nc(-c2cccc3sccc23)nc2c1ccn2S(C)(=O)=O | 28 nM |
